Measured values published in US20030162814A1, “N-substituted 1-amino-1,1-dialkylcarboxylic acid derivatives” (priority 2000, published 2003).

SMILES	melting point [°C]
CC(=O)O.CC(C)(C)NS(=O)(=O)c1ccccc1-c1ccc(NC(=O)C(C)(C)Nc2cccc(C(=N)N)c2)cc1	153
CC(C)(Nc1cccc(C(=N)N)c1)C(=O)Nc1ccc(-c2ccccc2S(N)(=O)=O)cc1.O=C(O)C(F)(F)F	197
CC(C)(C)NS(=O)(=O)c1ccccc1-c1ccc(NC(=O)C(C)(C)Nc2cccc(C#N)c2)cc1 [CB, N-(2′-tert-butylsulfamoyl-biphenyl-4-yl)-2-(3-cyanophenylamino)-2-methylpropionamide]	190 to 193
